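Exposure lasted 48 hours, with cells grown in 96-well plates and compounds tested at five concentrations. Abbreviation: GI50, concentration required for 50% inhibition of growth.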 Active and inactive are the calls of the source. Rule as the data show it: active = GI50 up to about 1.1 µM and inactive = higher.
Experiments:
Assay in all cases: NCI tumour cell line growth inhibition, 48 h
HCT-15 = test system: HCT-15
DU-145 = test system: DU-145
RPMI-8226 = test system: RPMI-8226
SK-MEL-5 = test system: SK-MEL-5
OVCAR-5 = test system: OVCAR-5
OVCAR-4 = test system: OVCAR-4
A498 = test system: A498
SF-539 = test system: SF-539
HL-60 = test system: HL-60
SNB-75 = test system: SNB-75
K562 = test system: K562
SR = test system: SR
SK-MEL-2 = test system: SK-MEL-2
A549 = test system: A549
EKVX = test system: EKVX
T47D = test system: T47D
SF-268 = test system: SF-268
HT-29 = test system: HT-29
COLO 205 = test system: COLO 205
SW-620 = test system: SW-620

Row | SMILES | GI50 (HCT-15) [µM] | GI50 (DU-145) | GI50 (RPMI-8226) | GI50 (SK-MEL-5) | GI50 (OVCAR-5) | GI50 (OVCAR-4) | GI50 (A498) | GI50 (SF-539) | GI50 (HL-60) | GI50 (SNB-75) | GI50 (K562) | GI50 (SR) | GI50 (SK-MEL-2) | GI50 (A549) | GI50 (EKVX) | GI50 (T47D) | GI50 (SF-268) | GI50 (HT-29) | GI50 (COLO 205) | GI50 (SW-620)
1 | Cn1cc(-c2cnc(-c3cn(C)c4ccccc34)cn2)c2ccccc21 | 0.187 | 5.27 µM (inactive) | 4.98 µM (inactive) | 0.288 µM (active) | 14 µM (inactive) | 11.6 µM (inactive) | 4.69 µM (inactive) | 3.37 µM (inactive) | 2.72 µM (inactive) | 2.77 µM (inactive) | 3.8 µM (inactive) | 3.09 µM (inactive) | 5.87 µM (inactive) | 6.21 µM (inactive) | 10.1 µM (inactive) | 44.8 µM (inactive) | 5.48 µM (inactive) | 4.78 µM (inactive) | 3.26 µM (inactive) | 3.19 µM (inactive)
2 | Nc1nc(Cl)cc(NCC2(O)CCCC2)n1 | > 100 | > 100 µM (inactive) | > 100 µM (inactive) | > 100 µM (inactive) | > 100 µM (inactive) | > 100 µM (inactive) | > 100 µM (inactive) | > 100 µM (inactive) | > 100 µM (inactive) | > 100 µM (inactive) | > 100 µM (inactive) | > 100 µM (inactive) | > 100 µM (inactive) | > 100 µM (inactive) | > 100 µM (inactive) | > 100 µM (inactive) | > 100 µM (inactive) | > 100 µM (inactive) | > 100 µM (inactive) | > 100 µM (inactive)
3 | CSc1[nH]nc(N)c1C(=O)Nc1ccc(Cl)cc1 | 46.2 | 68.5 µM (inactive) | 37.7 µM (inactive) | > 100 µM (inactive) | > 100 µM (inactive) | 50.5 µM (inactive) | 73.3 µM (inactive) | 66.2 µM (inactive) | 34.8 µM (inactive) | 75.5 µM (inactive) | 51.3 µM (inactive) | 35.3 µM (inactive) | > 100 µM (inactive) | 48.4 µM (inactive) | > 100 µM (inactive) | 58.1 µM (inactive) | 79.6 µM (inactive) | 41.5 µM (inactive) | 99.5 µM (inactive) | 57.3 µM (inactive)
4 | CC1(C)C(=O)/C=C\C(=O)C(C)(C)C2=CC=C(O2)C(C)(C)C(=O)C(Br)C(Br)C(=O)C(C)(C)C2=CC=C1O2 (stereo not given) | 53.1 | > 100 µM (inactive) | 2.58 µM (inactive) | 45 µM (inactive) | > 100 µM (inactive) | > 74.5 µM (inactive) | > 100 µM (inactive) | > 68.9 µM (inactive) | 4.76 µM (inactive) | 51.6 µM (inactive) | 5.19 µM (inactive) | 2.12 µM (inactive) | 99.1 µM (inactive) | > 100 µM (inactive) | > 100 µM (inactive) | > 81.7 µM (inactive) | > 66.5 µM (inactive) | 41.8 µM (inactive) | > 81.8 µM (inactive) | 7.4 µM (inactive)
5 | Oc1ncc(N(CCCl)CCCl)c(O)n1 [URACIL MUSTARD] | 50.2 | 22.3 µM (inactive) | 41.6 µM (inactive) | 41.8 µM (inactive) | 39.3 µM (inactive) | 83 µM (inactive) | 69.5 µM (inactive) | 11.7 µM (inactive) | 1.43 µM (inactive) | 26.3 µM (inactive) | 42.5 µM (inactive) | 1.58 µM (inactive) | > 97.3 µM (inactive) | 23.3 µM (inactive) | 85.7 µM (inactive) | 12.9 µM (inactive) | 12.7 µM (inactive) | 69.8 µM (inactive) | 63 µM (inactive) | 35.3 µM (inactive)
6 | [C-]#[N+]C(=C\c1ccc(O)cc1)/C(=C/c1ccc(O)cc1)[N+]#[C-] [XANTOCILLIN] | 1.45 | 2.53 µM (inactive) | 4.39 µM (inactive) | 2.04 µM (inactive) | 4.94 µM (inactive) | 3.19 µM (inactive) | 3.06 µM (inactive) | 2.97 µM (inactive) | 1.07 µM (active) | 1.12 µM (inactive) | 0.465 µM (active) | 1.67 µM (inactive) | 2.07 µM (inactive) | 5.94 µM (inactive) | 2.06 µM (inactive) | 3.34 µM (inactive) | 2.96 µM (inactive) | 10.9 µM (inactive) | 20.1 µM (inactive) | 1.14 µM (inactive)
